Test results from article PMC5218480 (PLoS ONE, 2017).

Test system: MV-4-11 cells
Assay: Gene expression microarray analysis (Affymetrix PrimeView) and GSEA
Format: cell-based, human
Design: RFU PODN (11730768_x_at) / Fold change /veh PODN (11730768_x_at) / RFU LINC00158 (11744669_a_at) / Fold change /veh LINC00158 (11744669_a_at) / RFU DUSP10 (11751237_a_at) / Fold change /veh DUSP10 (11751237_a_at) / RFU ID3 (11757404_x_at) / Fold change /veh ID3 (11757404_x_at) / RFU PLEKHG5 (11737974_s_at) / Fold change /veh PLEKHG5 (11737974_s_at) / RFU LRRC4B (11730491_at) / Fold change /veh LRRC4B (11730491_at) / RFU GIMAP4 (11747438_a_at) / Fold change /veh GIMAP4 (11747438_a_at) / RFU KRT8 (11758183_x_at) / Fold change /veh KRT8 (11758183_x_at) / RFU CNN1 (11734310_a_at) / Fold change /veh CNN1 (11734310_a_at) / RFU VPS37D (11726825_at) / Fold change /veh VPS37D (11726825_at) / RFU C10orf10 (11716522_x_at) / Fold change /veh C10orf10 (11716522_x_at) / RFU KIR2DL2 /// KIR2DL4 /// KIR2DL5A /// KIR2DL5B /// KIR2DS1 /// KIR2DS2 /// KIR2DS3 /// KIR2DS4 /// KIR3DL3 /// KIR3DL3 /// KIR3DS1 (11738374_at) / Fold change /veh KIR2DL2 /// KIR2DL4 /// KIR2DL5A /// KIR2DL5B /// KIR2DS1 /// KIR2DS2 /// KIR2DS3 /// KIR2DS4 /// KIR3DL3 /// KIR3DL3 /// KIR3DS1 (11738374_at) / RFU C1QL1 (11718748_at) / Fold change /veh C1QL1 (11718748_at) / RFU TMPRSS4 (11747572_a_at) / Fold change /veh TMPRSS4 (11747572_a_at) / RFU HAMP (11756126_x_at) / Fold change /veh HAMP (11756126_x_at) / RFU RNFT2 (11725882_a_at) / Fold change /veh RNFT2 (11725882_a_at) / RFU NR4A2 (11747474_a_at) / Fold change /veh NR4A2 (11747474_a_at) / RFU ABCC12 (11746883_a_at) / Fold change /veh ABCC12 (11746883_a_at) / RFU TMEM136 (11760407_x_at) / Fold change /veh TMEM136 (11760407_x_at) / RFU CLDN22 /// WWC2 (11732394_at) / Fold change /veh CLDN22 /// WWC2 (11732394_at) / RFU HLA-DPB1 (11760878_x_at) / Fold change /veh HLA-DPB1 (11760878_x_at) / RFU SPINT1 (11716480_a_at) / Fold change /veh SPINT1 (11716480_a_at) / RFU GAP43 (11754022_s_at) / Fold change /veh GAP43 (11754022_s_at) / RFU A4GNT (11735810_at) / Fold change /veh A4GNT (11735810_at) / RFU PRB3 (11715151_x_at) / Fold change /veh PRB3 (11715151_x_at) / RFU TUBB4B (11761932_at) / Fold change /veh TUBB4B (11761932_at) / RFU CAPN14 (11732068_a_at) / Fold change /veh CAPN14 (11732068_a_at) / RFU TMCC2 (11721928_a_at) / Fold change /veh TMCC2 (11721928_a_at) / RFU IRGQ (11745062_a_at) / Fold change /veh IRGQ (11745062_a_at) / RFU FAM174B (11720279_a_at) / Fold change /veh FAM174B (11720279_a_at) / RFU TMPRSS4 (11748680_a_at) / Fold change /veh TMPRSS4 (11748680_a_at) / RFU FAM212B (11763350_a_at) / Fold change /veh FAM212B (11763350_a_at) / RFU PLEKHG5 (11743358_a_at) / Fold change /veh PLEKHG5 (11743358_a_at) / RFU ZSCAN30 (11745921_a_at) / Fold change /veh ZSCAN30 (11745921_a_at) / RFU CMKLR1 (11741424_a_at) / Fold change /veh CMKLR1 (11741424_a_at) / RFU LOC101060620 /// MAPK8IP1 (11723275_at) / Fold change /veh LOC101060620 /// MAPK8IP1 (11723275_at) / RFU SPTSSB (11747773_x_at) / Fold change /veh SPTSSB (11747773_x_at) / RFU PRSS12 (11739890_at) / Fold change /veh PRSS12 (11739890_at) / RFU BIN1 (11741810_x_at) / Fold change /veh BIN1 (11741810_x_at) / RFU WNT11 (11732464_a_at) / Fold change /veh WNT11 (11732464_a_at) / RFU C10orf10 (11716521_a_at) / Fold change /veh C10orf10 (11716521_a_at) / RFU C5orf56 (11738089_at) / Fold change /veh C5orf56 (11738089_at) / RFU CYB561 (11721691_x_at) / Fold change /veh CYB561 (11721691_x_at) / RFU ANKRD19P (11752326_a_at) / Fold change /veh ANKRD19P (11752326_a_at) / RFU OR2T12 /// OR2T33 /// OR2T8 (11738714_s_at) / Fold change /veh OR2T12 /// OR2T33 /// OR2T8 (11738714_s_at) / RFU VCAN (11748164_a_at) / Fold change /veh VCAN (11748164_a_at) / RFU JSRP1 (11732532_at) / Fold change /veh JSRP1 (11732532_at) / RFU KRTAP10-11 (11738290_x_at) / Fold change /veh KRTAP10-11 (11738290_x_at) / RFU MYO3A (11730013_a_at) / Fold change /veh MYO3A (11730013_a_at) / RFU EBF3 (11725865_a_at) / Fold change /veh EBF3 (11725865_a_at) / RFU CAMK2N1 (11719241_x_at) / Fold change /veh CAMK2N1 (11719241_x_at) / RFU C5orf56 (11738088_a_at) / Fold change /veh C5orf56 (11738088_a_at) / RFU OLFML3 (11715873_a_at) / Fold change /veh OLFML3 (11715873_a_at) / RFU LOC100653217 /// NTM (11731650_a_at) / Fold change /veh LOC100653217 /// NTM (11731650_a_at) / RFU MAPK11 (11762145_a_at) / Fold change /veh MAPK11 (11762145_a_at) / RFU FIZ1 (11724087_x_at) / Fold change /veh FIZ1 (11724087_x_at) / RFU OASL (11726364_x_at) / Fold change /veh OASL (11726364_x_at) / RFU SOX15 (11748057_x_at) / Fold change /veh SOX15 (11748057_x_at) / RFU CD79A (11719716_a_at) / Fold change /veh CD79A (11719716_a_at) / RFU HIST1H1D (11736915_at) / Fold change /veh HIST1H1D (11736915_at) / RFU CASKIN2 (11723855_a_at) / Fold change /veh CASKIN2 (11723855_a_at) / RFU LOC730098 (11760151_x_at) / Fold change /veh LOC730098 (11760151_x_at) / RFU OR4N2 (11742367_at) / Fold change /veh OR4N2 (11742367_at) / RFU PRRT2 (11749266_a_at) / Fold change /veh PRRT2 (11749266_a_at) / RFU SNX32 (11753110_a_at) / Fold change /veh SNX32 (11753110_a_at) / RFU CDHR5 (11726645_a_at) / Fold change /veh CDHR5 (11726645_a_at) / RFU RCAN1 (11760418_a_at) / Fold change /veh RCAN1 (11760418_a_at) / RFU FAM167A (11723789_a_at) / Fold change /veh FAM167A (11723789_a_at) / RFU FAM26E (11764081_at) / Fold change /veh FAM26E (11764081_at) / RFU ISYNA1 (11749810_s_at) / Fold change /veh ISYNA1 (11749810_s_at) / RFU ACY1 (11761880_at) / Fold change /veh ACY1 (11761880_at) / RFU 11764098_at / Fold change /veh 11764098_at / RFU SAMD14 (11745864_x_at) / Fold change /veh SAMD14 (11745864_x_at) / RFU NPB (11741838_a_at) / Fold change /veh NPB (11741838_a_at) / RFU TMPRSS6 (11731388_a_at) / Fold change /veh TMPRSS6 (11731388_a_at) / RFU KRTAP10-2 (11738614_at) / Fold change /veh KRTAP10-2 (11738614_at) / RFU ARHGAP8 /// PRR5-ARHGAP8 (11727945_x_at) / Fold change /veh ARHGAP8 /// PRR5-ARHGAP8 (11727945_x_at) / RFU KRTAP5-7 /// NADSYN1 (11734609_at) / Fold change /veh KRTAP5-7 /// NADSYN1 (11734609_at) / RFU RASL12 (11751679_a_at) / Fold change /veh RASL12 (11751679_a_at) / RFU CDKN2B (11736163_a_at) / Fold change /veh CDKN2B (11736163_a_at) / RFU PRF1 (11729649_at) / Fold change /veh PRF1 (11729649_at) / RFU, ZNF638 /// ZNF638-IT1 / Fold change vs veh, ZNF638 /// ZNF638-IT1 / RFU, PANK3 / Fold change vs veh, PANK3 / RFU, SH3YL1 / Fold change vs veh, SH3YL1 / RFU, ZEB2 / Fold change vs veh, ZEB2 / RFU, NRIP1 / Fold change vs veh, NRIP1 / RFU, PTTG1IP / Fold change vs veh, PTTG1IP / RFU, CAPN2 / Fold change vs veh, CAPN2 / RFU, MED14 / Fold change vs veh, MED14 / RFU, SNORA58 / Fold change vs veh, SNORA58 / RFU, C1orf63 / Fold change vs veh, C1orf63 / RFU, LRRFIP1 / Fold change vs veh, LRRFIP1 / RFU, NDUFAF7 / Fold change vs veh, NDUFAF7 / RFU, SLC12A2 / Fold change vs veh, SLC12A2 / RFU, IBTK / Fold change vs veh, IBTK / RFU, ESF1 / Fold change vs veh, ESF1 / Fold change vs veh, TMEM50B / RFU, TAOK1 / Fold change vs veh, TAOK1 / RFU, ACBD3 / Fold change vs veh, ACBD3 / RFU, TMA16 / Fold change vs veh, TMA16 / RFU, RWDD3 / Fold change vs veh, RWDD3 / RFU, BCAT1 / Fold change vs veh, BCAT1 / RFU, EDEM3 / Fold change vs veh, EDEM3 / RFU, TMEM33 / Fold change vs veh, TMEM33 / RFU, WDR75 / Fold change vs veh, WDR75 / RFU, AHCTF1 / Fold change vs veh, AHCTF1 / RFU, TFRC / Fold change vs veh, TFRC / RFU, ZDHHC17 / Fold change vs veh, ZDHHC17 / RFU, NOM1 / Fold change vs veh, NOM1 / RFU, ARL8B / Fold change vs veh, ARL8B / RFU, ZBTB11 / Fold change vs veh, ZBTB11 / RFU, TAMM41 / Fold change vs veh, TAMM41 / RFU, KIAA1704 /// LOC100996395 / Fold change vs veh, KIAA1704 /// LOC100996395 / RFU, ING1 / Fold change vs veh, ING1 / RFU, TRMT61B / Fold change vs veh, TRMT61B / RFU, FUBP3 / Fold change vs veh, FUBP3 / RFU, TP53 / Fold change vs veh, TP53 / RFU, TNKS2 / Fold change vs veh, TNKS2 / RFU, ZFP14 / Fold change vs veh, ZFP14 / RFU, ACTR2 / Fold change vs veh, ACTR2 / RFU, PPP3R1 / Fold change vs veh, PPP3R1 / RFU, PIK3R1 / Fold change vs veh, PIK3R1 / RFU, HNRNPA1 / Fold change vs veh, HNRNPA1 / RFU, RNF170 / Fold change vs veh, RNF170 / RFU, ZNF28 / Fold change vs veh, ZNF28 / RFU, RNGTT / Fold change vs veh, RNGTT / RFU, OGT / Fold change vs veh, OGT / RFU, BRD1 / Fold change vs veh, BRD1 / RFU, MARS / Fold change vs veh, MARS / RFU, ZNF655 / Fold change vs veh, ZNF655 / RFU, FAHD1 / Fold change vs veh, FAHD1 / RFU, BDP1 / Fold change vs veh, BDP1 / RFU, LRRCC1 / Fold change vs veh, LRRCC1 / RFU, ARID1A / Fold change vs veh, ARID1A / RFU, ZNF146 / Fold change vs veh, ZNF146 / RFU, ZNF330 / Fold change vs veh, ZNF330 / RFU, GPN3 / Fold change vs veh, GPN3 / RFU, C9orf123 / Fold change vs veh, C9orf123 / RFU, N4BP2L2 / Fold change vs veh, N4BP2L2 / RFU, ARFIP1 / Fold change vs veh, ARFIP1 / RFU, FAM179B / Fold change vs veh, FAM179B / RFU, BCL10 / Fold change vs veh, BCL10 / RFU, UHRF1BP1L / Fold change vs veh, UHRF1BP1L / RFU, BET1 / Fold change vs veh, BET1 / RFU, CNOT2 / Fold change vs veh, CNOT2 / RFU, ZNF268 / Fold change vs veh, ZNF268 / Fold change vs veh, ZNF507 / RFU, DGCR2 / Fold change vs veh, DGCR2 / RFU, WDSUB1 / Fold change vs veh, WDSUB1 / Fold change vs veh, HSP90B1 /// MIR3652 / RFU, ADSS / Fold change vs veh, ADSS / RFU, GK / Fold change vs veh, GK / RFU, ZNF148 / Fold change vs veh, ZNF148 / RFU, TAF9 / Fold change vs veh, TAF9 / RFU, SLC1A5 / Fold change vs veh, SLC1A5 / RFU, SLMO2 / Fold change vs veh, SLMO2 / RFU, ABCC4 / Fold change vs veh, ABCC4 / RFU, LOC101060439 /// RAP1B / Fold change vs veh, LOC101060439 /// RAP1B / RFU, RFX7 / Fold change vs veh, RFX7 / RFU, GTPBP10 / Fold change vs veh, GTPBP10 / RFU, CNEP1R1 / Fold change vs veh, CNEP1R1 / RFU, BIVM-ERCC5 /// ERCC5 / Fold change vs veh, BIVM-ERCC5 /// ERCC5 / RFU, ILF3 / Fold change vs veh, ILF3 / RFU 11762660_at / Fold change /veh 11762660_at / RFU VCAN (11757783_s_at) / Fold change /veh VCAN (11757783_s_at) / RFU DDX43 (11728927_at) / Fold change /veh DDX43 (11728927_at) / RFU KRT8 (11758188_x_at) / Fold change /veh KRT8 (11758188_x_at) / RFU NKD1 (11759106_at) / Fold change /veh NKD1 (11759106_at) / RFU SRD5A1 (11742802_a_at) / Fold change /veh SRD5A1 (11742802_a_at) / RFU TPSAB1 /// TPSB2 (11721975_s_at) / Fold change /veh TPSAB1 /// TPSB2 (11721975_s_at) / RFU GSTM3 (11746129_a_at) / Fold change /veh GSTM3 (11746129_a_at) / RFU IL23R (11737362_x_at) / Fold change /veh IL23R (11737362_x_at) / RFU TMEM51 (11727254_a_at) / Fold change /veh TMEM51 (11727254_a_at) / RFU PIWIL2 (11732686_x_at) / Fold change /veh PIWIL2 (11732686_x_at) / RFU ORM1 (11744905_x_at) / Fold change /veh ORM1 (11744905_x_at) / RFU CCDC152 (11743942_at) / Fold change /veh CCDC152 (11743942_at) / RFU ECM1 (11717891_a_at) / Fold change /veh ECM1 (11717891_a_at) / RFU IL23R (11748794_a_at) / Fold change /veh IL23R (11748794_a_at) / RFU TNFAIP8L3 (11732012_x_at) / Fold change /veh TNFAIP8L3 (11732012_x_at) / RFU MBOAT4 (11741988_at) / Fold change /veh MBOAT4 (11741988_at) / RFU 11764193_at / Fold change /veh 11764193_at / RFU TMEM53 (11763286_at) / Fold change /veh TMEM53 (11763286_at) / RFU MAGEB2 (11727129_at) / Fold change /veh MAGEB2 (11727129_at) / RFU TMEM200A (11744735_a_at) / Fold change /veh TMEM200A (11744735_a_at) / RFU CCDC152 (11751479_a_at) / Fold change /veh CCDC152 (11751479_a_at) / RFU FAM211A (11726209_a_at) / Fold change /veh FAM211A (11726209_a_at) / RFU RGS16 (11746705_a_at) / Fold change /veh RGS16 (11746705_a_at) / RFU VCAN (11755009_s_at) / Fold change /veh VCAN (11755009_s_at) / RFU RHOB (11743442_s_at) / Fold change /veh RHOB (11743442_s_at) / RFU RGS16 (11720943_a_at) / Fold change /veh RGS16 (11720943_a_at) / RFU RGS16 (11720944_at) / Fold change /veh RGS16 (11720944_at) / RFU, VPS4B / Fold change vs veh, VPS4B / RFU, CREB1 / Fold change vs veh, CREB1 / RFU, DNAJC13 / Fold change vs veh, DNAJC13 / RFU, GNAQ / Fold change vs veh, GNAQ / RFU, CDK5R1 / Fold change vs veh, CDK5R1 / RFU, ZRANB3 / Fold change vs veh, ZRANB3 / RFU, CUL4A / Fold change vs veh, CUL4A / RFU, CCNY / Fold change vs veh, CCNY / RFU, UFL1 / Fold change vs veh, UFL1 / RFU, COG3 / Fold change vs veh, COG3 / RFU, DIAPH2 / Fold change vs veh, DIAPH2 / RFU, SKA2 / Fold change vs veh, SKA2 / RFU, AFF3 / Fold change vs veh, AFF3 / RFU, LMF1 / Fold change vs veh, LMF1 / RFU, IPO11 / Fold change vs veh, IPO11 / RFU, DFFB / Fold change vs veh, DFFB / RFU, FOXP1 / Fold change vs veh, FOXP1 / RFU, CARD8 / Fold change vs veh, CARD8 / RFU, STRN3 / Fold change vs veh, STRN3 / RFU, ADK / Fold change vs veh, ADK / RFU, RASSF2 / Fold change vs veh, RASSF2 / RFU, WIPF1 / Fold change vs veh, WIPF1 / RFU, LARP1B / Fold change vs veh, LARP1B / RFU, RASA1 / Fold change vs veh, RASA1 / RFU, RB1 / Fold change vs veh, RB1 / RFU, PPFIA1 / Fold change vs veh, PPFIA1 / RFU, MAT2A / Fold change vs veh, MAT2A / RFU, CCT5 / Fold change vs veh, CCT5 / RFU, WDR92 / Fold change vs veh, WDR92 / RFU, CUX1 / Fold change vs veh, CUX1 / RFU, TTC7A / Fold change vs veh, TTC7A / RFU, TMEM135 / Fold change vs veh, TMEM135 / RFU, DEPTOR / Fold change vs veh, DEPTOR / RFU, CPM / Fold change vs veh, CPM / RFU, DNAJB6 / Fold change vs veh, DNAJB6 / RFU, CACNA2D3 / Fold change vs veh, CACNA2D3 / RFU, DTX4 / Fold change vs veh, DTX4 / RFU, TFCP2 / Fold change vs veh, TFCP2 / RFU, GMCL1 /// GMCL1P1 / Fold change vs veh, GMCL1 /// GMCL1P1 / RFU, AEBP2 / Fold change vs veh, AEBP2 / RFU, SNHG1 /// SNORD22 /// SNORD25 /// SNORD26 /// SNORD27 /// SNORD28 /// SNORD29 /// SNORD31 / Fold change vs veh, SNHG1 /// SNORD22 /// SNORD25 /// SNORD26 /// SNORD27 /// SNORD28 /// SNORD29 /// SNORD31 / Fold change (Aza/veh), C12orf56 (ProbeSet 11735607_a_at) / Fold change (ACY-1035/veh), C12orf56 (ProbeSet 11735607_a_at) / Fold change (Aza/veh), FGFR1OP (ProbeSet 11751329_s_at) / Fold change (ACY-1035/veh), FGFR1OP (ProbeSet 11751329_s_at) / Fold change (Aza/veh), VPS36 (ProbeSet 11739960_a_at) / Fold change (ACY-1035/veh), VPS36 (ProbeSet 11739960_a_at) / RFU SYPL1 (11715823_x_at) / Fold change /veh SYPL1 (11715823_x_at) / RFU IGFBP7 (11715501_s_at) / Fold change /veh IGFBP7 (11715501_s_at) / RFU REEP3 (11722064_at) / Fold change /veh REEP3 (11722064_at) / RFU IGLL1 (11728026_x_at) / Fold change /veh IGLL1 (11728026_x_at): dose or concentration left out as unconfirmed
Conditions: ProbeSet 11755425_a_at; LIST B

Nc1ccc(-c2cccs2)cc1NC(=O)c1ccc2c(c1)cc(C1CC1)n2CCN1CCOCC1 [ACY-1035]
Fold change vs veh, FAM179B: 1.02
